Measurements taken from patent publication US4367216A, “Triiodinated 5-aminoisophthalic acid derivatives” (Schering Aktiengesellschaft, priority 1979, dated 1983).

Experiments:
[1] = Stability to light and air (iodine cleavage); format: physicochemical; conditions: comparison table of A, B and C
[2] = test system: lymphatic system of dogs; assay: Lymphography comparison of A, B and C after direct and indirect administration; format: in vivo
Method: The following table compares the advantageous effects of the compounds of this invention in lymphography, using as test substances thiodipropionic acid bis[3,5-bis-(2,3-dihydroxypropyl-N-methylcarbamoyl)-2,4,6-triiodoanilide] (A) and 4,4,6,6-tetramethyl-4,6-disila-5-oxanonanedioic acid bis[3,5-bis(2,3-dihydroxypropyl-N-methylcarbamoyl)-2,4,6-triiodoanilide] (B) in comparison with the fatty acid ethyl ester of iodinated oleum papaveris (C). The test results were determined on dogs using testing methods conventional in lymphography after direct and indirect administration.

[3] = test system: lymphatic system; conditions: cited from earlier work
[4] = cited from earlier work
[5] = dimeglumine salt; cited from earlier work
[6] = dogs, direct and indirect administration

Compound: CN(CC(O)CO)C(=O)c1c(I)c(NC(=O)CC[Si](C)(C)O[Si](C)(C)CCC(=O)Nc2c(I)c(C(=O)N(C)CC(O)CO)c(I)c(C(=O)N(C)CC(O)CO)c2I)c(I)c(C(=O)N(C)CC(O)CO)c1I (stereo not drawn) [B, 4,4,6,6-tetramethyl-4,6-disila-5-oxanonanedioic acid bis[3,5-bis(2,3-dihydroxypropyl-N-methylcarbamoyl)-2,4,6-triiodoanilide]]
- Stability [1]: Stable
- Compatibility (embolism) [2, 6]: No Embolisms
- Residence Time in the Body [2, 6]: Hours

Compound: CC(=O)NCc1c(I)c(NC(C)=O)c(I)c(C(=O)O)c1I [iodamide]
- Compatibility ([3]; crystalline suspensions, inflammation at the injection site and in the lymphatic system): insufficient compatibility
- Excretion period ([3]; in vivo): days to weeks

Compound: CC(=O)Nc1c(I)c(C(=O)N[C@H]2C(O)O[C@H](CO)[C@@H](O)[C@@H]2O)c(I)c(N(C)C(C)=O)c1I (stereo partly drawn) [metrizamide]
- Osmotic pressure ([4]; solution of 300 mg iodine/ml, blood 7.5 atmospheres): 12 atmospheres
- Usefulness for lymphography ([3]; in vivo): useless for lymphography

Compound: CN(CC(O)CO)C(=O)c1c(I)c(NC(=O)CCSCCC(=O)Nc2c(I)c(C(=O)N(C)CC(O)CO)c(I)c(C(=O)N(C)CC(O)CO)c2I)c(I)c(C(=O)N(C)CC(O)CO)c1I (stereo not drawn) [A, thiodipropionic acid bis[3,5-bis-(2,3-dihydroxypropyl-N-methylcarbamoyl)-2,4,6-triiodoanilide]]
- Stability [1]: Stable
- Compatibility (embolism) ([2]; dog, in vivo): No Embolisms
- Residence Time in the Body ([2]; dog, in vivo): Hours

Compound: CNC(=O)c1c(I)c(NC(=O)CCCCC(=O)Nc2c(I)c(C(=O)O)c(I)c(C(=O)NC)c2I)c(I)c(C(=O)O)c1I [iocarmic acid]
- Osmotic pressure compared with monomers ([4]; dimeglumine salt): somewhat lower osmotic pressure
- Concentration in the urine [5]: increased
